In patent US9745280B2, “Compound or pharmaceutically acceptable salt thereof, and pharmaceutical composition containing same as active ingredient” (SNU R&DB FOUNDATION, priority 2012, dated 2017):
pIC50: −log10 of the molar value. Where two headings read alike, the source gives them in different places.

Key:
[1] = tested on: human bronchial epithelial cells (HBEC-1 and BEAS-2B); test: Cytotoxicity to normal cells (MTT); type: cell-based; settings: 3 days
Experimental: To investigate the cytotoxicity of the control deguelin, the compound 69 (Example 33), and the compound 54 (Example 28) to the normal cells, it was examined how these compounds affect the proliferation of human bronchial epithelial cells (HBEC-1 and BEAS-2B).
Particularly, HBEC-1 and BEAS-2B cells were seeded on a 96-well culture plate (5,000 cells/well), followed by culture for 24 hours. The plate was treated with 0.1% DMSO (comparative control (CT)), 1 μM of deguelin (control), or […] of the compound 69 (Example 33) and the compound 54 (Example 28) (experimental group), followed by further culture for 3 days. Cytotoxicity was evaluated by MTT assay.

[2] = tested on: human umbilical vein endothelial cells (HUVECs); test: Vascular endothelial cell tube formation, conditioned media of hypoxic HCT116; type: cell-based; settings: conditioned media of treated HCT116; 30 hours
Experimental: (§1) First, HCT116, the human colorectal cancer cell line, was cultured in a hypoxic chamber (1% O2) as the in vitro hypoxic model. The cells were treated with deguelin, compound 69 (Example 33) and compound 54 (Example 28) at the concentrations of 1˜100 nM, followed by culture for 8 hours. Next, the culture fluid was collected and proceeded to centrifugation at 4° C. for 10 minutes (6,000×g). Cell culture fluid was obtained from the supernatant (conditioned media (CM)). The obtained cell culture fluid was treated to human umbilical vein endothelial cells (HUVECs) which were cultured separately. Then changes of angiogenesis were investigated by the following experiments.
Umbilical vein endothelial cells (HUVECs) were treated with the cell culture fluid obtained in the above preparation stage. 30 hours later, tube formation was observed. As a result, tube formation was induced by the control deguelin and the compounds of the present invention.

[3] = tested on: human umbilical vein endothelial cells (HUVECs); test: Vascular endothelial cell migration, trans-well, conditioned media of hypoxic HCT116; type: cell-based; settings: cell culture fluid treated at 100 nM; 4 hours
Experimental: as §1
The cell culture fluid obtained in the above preparation stage was loaded in the lower chamber of trans-well plate (6.5 mm diameter filter) and umbilical vein endothelial cells (HUVECs) were plated carefully in the upper chamber, followed by culture at 37° C. for 4 hours. The cells migrated down the filter were confirmed by H&E staining.

[4] = tested on: human umbilical vein endothelial cells (HUVECs); test: Vascular endothelial cell proliferation, [3H]-thymidine incorporation, conditioned media of hypoxic HCT116; type: cell-based; settings: conditioned media of HCT116 treated at 1˜100 nM under hypoxia; HUVECs 18 hours
Experimental: as §1
The cell culture fluid prepared in the above preparation stage was treated to umbilical vein endothelial cells (HUVECs) for 18 hours. Cell proliferation was confirmed by [^3H]-thymidine incorporation assay.

[5] = previous study; decreased tyrosine hydroxylase immunoreactivity; cited from earlier work
[6] = Body weight of treated rats; type: in vivo
HIF-1α = HIF-1α inhibitory activity, hypoxia-response element-luciferase in HRE-A549 cells; type: cell-based; settings: HRE-A549 cells, hypoxia-chamber 24 h, luciferase activity
Experimental: HRE-A549 cells stably transfected with hypoxia-response element-luciferase construct were incubated in Dulbecco's modified Eagle's medium. Following overnight serum deprivation, the cells were treated with or without Deguelin or example compounds. After 1 h incubation, the cells were incubated in hypoxia-chamber for 24 h at 37° C. Luciferase activity was measured by adding luciferase assay reagent (Promega, Madison, Wis.).

[7] = tested on: H1299 NSCLC (non-small cell lung cancer) cells; test: Cancer cell growth inhibition (MTS); type: cell-based; settings: Homo sapiens
Experimental: To investigate the inhibitory effect of the compounds of Examples of the present invention on cancer cell growth, the following experiment was performed. Particularly, H1299 NSCLC (non-small cell lung cancer) cells were distributed in a 96-well plate at the density of 5×10^3 cells/well, followed by culture in a 37° C., 5% CO2 incubator for 24 hours. The compound of each example was dissolved in DMSO (10 nM, 100 nM, 1 μM, 10 μM), which was treated to each well. 48 hours later, cell growth was measured by using MTS reagent (3-(4,5-dimethylthiazole-2-yl)-5-(3-carboxymethoxyphenyl)-2-(4-sulfophenyl)-2H-tetrazolium). The experiment was performed in triplicate and the standard error of the analysis result was corrected.

[8] = tested on: retinal pigment epithelial cells; type: cell-based, human
Excerpt: (§2) We examined toxicity of example 28 compound at the cellular levels by testing the effects of example 28 compound on the viability of several normal cells, including human normal lung epithelial cells (HBE and BEAS-2B; FIG. 14), hippocampal cells (HT-22; FIG. 15), retinal pigment epithelial cells (FIG. 16), and vascular endothelial cells (HUVEC; FIG. 17).

[9] = tested on: lung cancer cells with or without anticancer drug resistance; test: Anchorage-dependent colony formation assay; type: cell-based; settings: increasing concentrations, 2 weeks
Excerpt: (§3) H1299, H460, H292, and BEAS-2B cells were purchased from the ATCC. The other NSCLC cells were kindly provided by Dr. John V. Heymach (MD Anderson Cancer Center, Houston, Tex.). HUVECs were purchased from Invitrogen. Human bronchial epithelial (HBE) cells were kindly provided by Dr. John Minna (The University of Texas Southwestern Medical Center, Dallas, Tex.). Human retinal pigment epithelial (RPE) cells were kindly provided by Dr. Jeong Hun Kim (College of Medicine, Seoul National University, Seoul, Republic of Korea). HT-22 cells were provided by Dr. Dong Gyu Jo (College of Pharmacy, Sungkyunkwan University, Suwon, Republic of Korea). Cell lines were authenticated and validated at the Korean Cell Line Bank using AmplFLSTR identifier PCR Amplification Kit (Applied Biosystems; cat. No. 4322288) in 2013. Cells passed for fewer than 6 months after receipt or resuscitation of validated cells were used in this study.
HT-22 and RPE cells were cultured in DMEM supplemented with 10% fetal bovine serum (FBS) and antibiotics. Other cancer cells were cultured in RPMI 1640 medium supplemented with 10% FBS and antibiotics. […]
For the anchorage-dependent colony formation assay, cells were seeded onto 6-well plates at a density of 300 cells/well and then treated with increasing concentrations of example 28 compound (“SH” in FIG. 11) for 2 weeks. […] The colonies were photographed and counted.

[10] = tested on: human normal lung epithelial cells (HBE and BEAS-2B); type: cell-based
Excerpt: as §2

[11] = tested on: vascular endothelial cells (HUVEC); type: cell-based
Excerpt: as §2

[12] = tested on: hippocampal cells (HT-22); type: cell-based
Excerpt: as §2

[13] = tested on: lung cancer cells with or without anticancer drug resistance; test: Anchorage-independent (soft agar) colony formation assay; type: cell-based; settings: 2 weeks
Excerpt: as §3
HT-22 and RPE cells were cultured in DMEM supplemented with 10% fetal bovine serum (FBS) and antibiotics. […]
For the anchorage-independent colony formation assay, the cells were mixed with sterile 1% agar solution (final concentration of 0.4%) and then poured onto 1% base agar in 24-well plates. […] After incubation, the colonies were stained with MTT solution and then photographed and counted.

HUVECs = test: HUVEC tube formation with conditioned medium from treated H1299 cells; type: cell-based; settings: CM from H1299 cells treated under normoxic or hypoxic conditions
Experimental: H1299 cells were treated with example 28 compound (“SH” in FIG. 13) or deguelin for 1 d and then further incubated under normoxic or hypoxic conditions for 4 h. After incubation, the drug-containing medium was discarded and fresh serum-free medium was added to cell and further incubated for 24 h. After incubation, the conditioned medium (CM) was collected.
Briefly, the HUVECs were diluted in complete medium and seeded onto CellBIND surface 96-well plates (Corning). The cells were treated with the CM. The morphological changes of the HUVECs were photographed and scored.

[14] = NCI-H1299, 48 hours, MTS reagent

SMILES: COc1ccc([C@H](C)C(=O)c2ccc3c(c2OC)C=CC(C)(C)O3)cc1OC [compound 69, (S)-2-(3,4-Dimethoxyphenyl)-1-(5-methoxy-2,2-dimethyl-2H-chromen-6-yl)propan-1-one]
- cell survival rate ([1]; human, 1 μM): approximately 80%
- inhibitory effect on tube formation [2]: greater than that of the control deguelin
- migration of vascular endothelial cells [3]: showed the inhibitory effect on the migration of vascular endothelial cells
- proliferation of vascular endothelial cells [4]: inhibited the proliferation of vascular endothelial cells dose-dependently

SMILES: COc1cc2c(cc1OC)[C@@H]1C(=O)c3ccc4c(c3O[C@@H]1CO2)C=CC(C)(C)O4 [deguelin, Deguelin, reference compound]
- cell survival rate ([1]; HBEC-1 and BEAS-2B, 1 μM of deguelin, MTT): approximately 60%
- toxicity in the rat brain [5]: caused parkinsonism-like syndrome
- body weight of rats ([6]; compared with control): significantly reduced

SMILES: COc1cc2c(cc1OC)[C@@H]1C(=O)c3ccc4c(c3O[C@@H]1CO2)C=CC(C)(C)O4 [Comparative Example 1 (Deguelin), (7aS,13aS)-9,10-Dimethoxy-3,3-dimethyl-13,13a-dihydro-3H-chromeno[3,4-b]pyrano[2,3-h]chromen-7(7aH)-one, reference compound]
- pIC50 (HIF-1α): 6.78
- pIC50 [7, 14]: 6.96

SMILES: COc1ccc(CC(=O)c2ccc3c(c2OC)C=CC(C)(C)O3)cc1OC [compound 54, 2-(3,4-Dimethoxyphenyl)-1-(5-methoxy-2,2-dimethyl-2H-chromen-6-yl)ethanone]
- cell survival rate ([1]; human, 1 μM): approximately 80%
- inhibitory effect on tube formation [2]: greater than that of the control deguelin
- pIC50 ([7]; NCI-H1299, value repeated in text): 6.85
- migration of vascular endothelial cells [3]: showed the inhibitory effect on the migration of vascular endothelial cells

SMILES: COc1c(C(=O)Cc2ccc(Cl)cc2)ccc2c1C=CC(C)(C)O2 [Example 74, 2-(4-chlorophenyl)-1-(5-W methoxy-2,2-dimethyl-2H-chromen-6-yl)ethanone]
- pIC50 (HIF-1α; read-out: IC50): 5.90

SMILES: COc1c(C(=O)Cc2ccccc2C(F)(F)F)ccc2c1C=CC(C)(C)O2 [Example 69, 1-(5-methoxy-2,2-dimethyl-2H-chromen-6-yl)-2-(2-(trifluoromethyl)phenyl)ethanone]
- pIC50 (HIF-1α; read-out: IC50): 5.67

SMILES: COc1c(C(=O)Cc2cccc(O)c2)ccc2c1C=CC(C)(C)O2 [Example 83, 2-(3-hydroxyphenyl)-1-(5-methoxy-2,2-dimethyl-2H-chromen-6-yl)ethanone]
- pIC50 (HIF-1α; read-out: IC50): 5.84

SMILES: COc1c(C(=O)Cc2ccc(O)cc2)ccc2c1C=CC(C)(C)O2 [Example 85, 2-(4-hydroxyphenyl)-1-(5-methoxy-2,2-dimethyl-2H-chromen-6-yl)ethanone]
- pIC50 (HIF-1α; read-out: IC50): 6.10

SMILES: COc1ccc(CC(=O)c2ccc3c(c2OC)C=CC(C)(C)O3)cc1OC [Example 28, 2-(3,4-Dimethoxyphenyl)-1-(5-methoxy-2,2-dimethyl-2H-chromen-6-yl)ethanone]
- cytotoxicity compared with deguelin [8]: significantly reduced cytotoxicity
- pIC50 (HIF-1α): 5.67
- pIC50 [7, 14]: 6.85
- anchorage-dependent colony formation [9]: remarkably superior anticancer effect
- body weight of rats ([6]; rat, in vivo): minimal influence on the body weight of rats
- cytotoxicity compared with deguelin [10]: significantly reduced cytotoxicity
- cytotoxicity compared with deguelin [11]: significantly reduced cytotoxicity
- cytotoxicity compared with deguelin [12]: significantly reduced cytotoxicity
- proliferation of vascular endothelial cells [4]: inhibited the proliferation of vascular endothelial cells dose-dependently
- anchorage-independent colony formation [13]: remarkably superior anticancer effect
- tube formation of HUVECs (HUVECs): formed significantly fewer tubes
